Results on twelve substances are retold here after patent US11098081B2, “Epitope tag and method for detection and/or purification of tagged polypeptides” (ChromoTek GmbH, priority 2015, dated 2021).

Ends that are not written are not given here.

The subject of one test is BC2-Nb. As to the kind of experiment: Biolayer interferometry of immobilised biotinylated BC2T peptides with BC2-Nb. The conditions noted are these: for kon (M^−1s^−1): association rate constant; for Kd: biotinylated peptide on Streptavidin biosensor, BC2-Nb 5-50 nM, 1:1 binding model; for koff (s^−1): dissociation rate constant. The class given is binding, Vicugna pacos. Here is the method:
Biolayer interferometry (BLI)-based affinity measurements were used to assess two improved variations of the original BC2T sequence (a: […], pTag1 SEQ ID NO:33, b. […], pTag2 SEQ ID NO:34) in comparison with the original BC2T sequence (c: BC2T SEQ ID NO:4) BC2T and improved variations thereof were synthesized as peptides with an N-terminal biotin attached through an ethylene glycol linker and immobilised on Streptavidin biosensors. Binding kinetics were analysed by incubating immobilised peptides with 4-5 concentrations of BC2-Nb (5-50 nM) and evaluated using a 1:1 binding model.
Listed are the dissociation constant (KD), the association […] and dissociation (koff) rate constants and markers of the quality of fit of a 1:1 binding model (χ^2, R^2). The constants reported for original BC2T differ from those listed in Table 1 because kinetics were analysed using a different method.
The affinity measurements of BC2-Nb to BC2T and improved variations pTag1 and pTag2 were performed using biolayer interferometry using a BLItz system instrument (fortéBIO). Biotinylated peptide of BC2T and its variations were immobilised on Streptavidin biosensors (fortéBIO). The loaded sensor was sequentially dipped into BLItz buffer (phosphate buffered saline, 0.1% (m/v) BSA, 0.02% (v/v) Tween20) for 120 s to determine base line signal, in a solution of BC2-Nb in BLItz buffer (concentration of 5-50 nM) for 120 s to determine association and in BLItz buffer for 600 s to determine dissociation. The shaking rate was 1200 rpm. As a reference, each peptide was also incubated with BLItz buffer only according to the protocol above. In a control experiment, Streptavidin biosensors were incubated with BC2-Nb without prior peptide immobilisation. The sensor was regenerated by sequential dips into 10 mM glycine pH 2.0 and BLItz buffer (repeated three times). Raw data were analysed using the software BLItz Pro (fortéBio) and a 1:1 binding model.

Test [1] has as its system BC2 nanotrap. As to the kind of experiment: Immunoprecipitation of BC2-tagged proteins from HEK293T cell lysates with the BC2 nanotrap. The class given is binding. The settings on record: soluble protein fraction of HEK293T cells, immunoblot. Here is the method: (d) The BC2 nanotrap binds BC2-tagged proteins from human cell lysates irrespectively whether the BC2 tag is located at the N- or the C-terminus. For immunoprecipitation of BC2-tagged proteins soluble protein fractions of HEK293T cells expressing BC2TeGFP, eGFPBC2T or solely eGFP were incubated with the BC2 nanotrap as described in (a). Input (I), non-bound (NB) and bound fractions (B) were separated by SDS-PAGE and visualized either by Coomassie Blue staining (top) or immunoblot analysis (bottom).
(a) For immunoprecipitation soluble protein fractions of HEK293T cells either expressing eGFP-PCNA (control) or BC2-tagged eGFP-PCNA (eGFP-PCNABC2T) (left panel) or mCherry-Vimentin (mCherry-VIM, control) or BC2-lagged mCherry-VIM (mCherry-VIMBC2T) were incubated with the BC2 nanotrap. Input (I), non-bound (NB) and bound fractions (B) were separated by SDS-PAGE and visualized either by immunoblot analysis using anti-PCNA or anti-Vimentin antibodies (upper panel). As loading control, blots were probed with an anti-GAPDH antibody (lower panel).
The BC2-capture system was further analyzed for one-step purification of recombinant proteins derived from human cells Specifically, it was investigated whether the terminal position of the BC2-tag has an impact on binding. […]
Next, it was tested whether the BC2 nanotrap can precipitate BC2-tagged cellular components of the intermediate filaments or the nuclear replication machinery BC2T was genetically fused either to mCherry-vimentin (mCherry-VIMBC2T) or eGFP-PCNA (eGFP-PCNABC2T) and both constructs were expressed in HEK293T cells. […] Soluble protein extracts were incubated with the BC2 nanotrap and whole lysate (input), non-bound and bound fractions were analyzed by immunoblotting using anti-vimentin or anti-PCNA antibodies. […]
HEK293T cells transiently expressing eGFP, eGFPBC2T or BC2TeGFP, eGFP-PCNA, eGFP-PCNABC2T, mCherry-Vimentin, mCherry-VimentinBC2T were washed and harvested in phosphate buffered saline (PBS), snap-frozen in liquid nitrogen and stored at −20° C. Cell pellets were homogenized in 200 μl lysis buffer (10 mM Tris/Cl pH 7.3, 150 mM NaCl, 0.5% NP40, 1 μg DNaseI, 2 mM MgCl2, 2 mM PMSF, 1× protease inhibitor mix M (Serva) by repealed pipetting for 40 min on ice. After a centrifugation step (10 min at 18.000×g) the protein concentration of each lysate was determined using a Pierce BCA Protein Assay Kit (Thermo Fisher Scientific) according to manufacturer's protocol and the protein solutions were adjusted with dilution buffer (10 mM Tris/Cl pH 7.5, 150 mM NaCl, 2 mM PMSF) to a concentration of 1 mg/ml, 2% of the supernatant were added to SDS-containing sample buffer (referred to as input). […] Samples were analyzed by SDS-PAGE followed by immunoblotting. […]
A general note: Immunoblotting shows a protein as a band on a membrane.

For test [2], the system named is BC2 nanotrap. Nature of the test: Immunoprecipitation of BC2-tagged GFP from E. coli lysate with the BC2 nanotrap. The class given is binding. The settings on record: soluble protein fraction of E. coli, SDS-PAGE, Coomassie and/or anti-GFP immunoblot.
The test system of test [3] is BC2 nanotrap. Nature of the test: Elution of bound BC2-tagged protein from the BC2 nanotrap. The class given is binding. The settings on record: for GFPBC2T detected in elution fraction: competitive elution. Here is the method: […] Aliquots of released (R) and bound (B) fractions were analyzed by immunoblotting with an anti-GFP antibody.
For the elution experiments 40 μl of BC2 nanotrap (slurry) were incubated with 400 μl soluble protein extract (c=1 mg/ml) derived from E. coli cells expressing GFPBC2T for 1 h at 4° C. on an end-over-end rotor. After a centrifugation step (2500×g, 4° C., 2 min) the supernatant was discarded and the beads were washed four times in ice-cold PBS including a cup change after the second washing step. Subsequently, beads were pelleted and incubated with 80 μl of the indicated elution conditions for 15 min at RT. […] 0.1 mM or 1 mM BC2-peptide dissolved in 0.2 M Tris/Cl pH 7.4, 150 mM NaCl; acidic elution: 0.2 M Glycine-HCl adjusted to pH 1. pH 2 or pH 3; alkaline elution: 0 mM. 1 mM, 10 mM or 100 mM NaOH; elution with sodium thiocyanate. 0 M, 1 M, 2 M, or 3 M NaSCN. The eluates were collected and boiled in 1×SDS containing sample buffer and the remaining beads were washed twice in PBS before boiling in 40 μl 2× sample buffer. 10% of each elution (release, R) and bead bound (bound, B) fraction were analyzed by SDS-PAGE and immunoblotting using an anti-GFP antibody.

Chain of BC2 nanotrap (as listed by the source): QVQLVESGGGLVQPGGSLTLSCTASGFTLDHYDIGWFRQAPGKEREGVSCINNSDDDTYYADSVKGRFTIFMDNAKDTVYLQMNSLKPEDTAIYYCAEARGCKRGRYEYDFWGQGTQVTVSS
Chain of BC2-Nb (as listed by the source): as above

Take ADRVRAVSHWSS [pTag2]: in the test with BC2-Nb, the “kon (M^−1s^−1)” value is on record as 1.1 ± 0.1 × 10^5 M^−1s^−1, the Kd worked out at 1.9 nM and the “koff (s^−1)” value is 2.0 ± 0.1 × 10^−4 s^−1. As for “BC2TeGFP: modified GFP comprising the BC2-tag on the N-terminus, expressed in HEK293T cells (PDRKAAVSHWQQ-eGFP; also: BC2 tag fused to the N-terminus of eGFP)”, the “precipitation by the BC2 nanotrap from HEK293T lysate” value with BC2 nanotrap [1] is “efficiently precipitated”. Consider “GFPBC2T-8: GFP C-terminally fused to BC2T-8 ({GFP}-RKAAVSHW; also: BC2T-8 tag fused to the C-terminus of GFP)”, for which the “precipitation by the BC2 nanotrap from E. coli lysate” value (“precipitation … from E. coli lysate” for short) in the test on BC2 nanotrap [2] is on record as “in a comparable manner as GFP tagged with the original BC2T”.

“GFPBC2T-10: GFP C-terminally fused to BC2T-10 ({GFP}-PDRKAAVSHW; also: BC2T-10 tag fused to the C-terminus of GFP)”: the “precipitation … from E. coli lysate” value in the test on BC2 nanotrap [2] was “in a comparable manner as GFP tagged with the original BC2T”.

As to “GFPBC2T: GFP with a C-terminal BC2 tag, expressed in E. coli”, in the test with BC2 nanotrap [3] (MgCl2 0.5 M-4 M, data not shown), the “elution with MgCl2” value is “does not elute”. Also, the “release of bound protein” value with BC2 nanotrap [3] (alkaline elution, pH 11 and 12) is 40-80%. The “precipitation … from E. coli lysate” value in the test with BC2 nanotrap [2] was “quantitatively precipitates”. Consider “PDRKAAVSHW (Epitope peptide 10 aa) [BC2T-10]”, for which, in the test on BC2 nanotrap [2], the “precipitation … from E. coli lysate” value was “efficiently recognized”. In the case of PDRKAAVSHWQQ [BC2T], the “GFPBC2T detected in elution fraction” value in the test with BC2 nanotrap [3] (0.1 mM BC2 peptide) is reported as ~60%. Moreover, the “GFPBC2T detected in elution fraction” value in the test with BC2 nanotrap [3] (1 mM BC2 peptide) is recorded as ~80%. In addition, in the test with BC2-Nb, the “kon (M^−1s^−1)” value is listed as 1.9 ± 0.1 × 10^5 M^−1s^−1, the Kd was determined as 2.6 nM and the “koff (s^−1)” value is listed as 5.0 ± 0.1 × 10^−4 s^−1.

For the substance PDRVRAVSHWSS [pTag1], in the test on BC2-Nb, the “dissociation rate constant koff slower than for original BC2T” value came to 7 ×, the “kon (M^−1s^−1)” value is reported as 9.2 ± 0.5 × 10^4 M^−1s^−1, binding was characterised by a dissociation constant (Kd) of 0.7 nM and the “koff (s^−1)” value is recorded as 6.8 ± 0.4 × 10^−5 s^−1. As to “RKAAVSHW (Epitope peptide 8 aa) [BC2T-8]”, in the test with BC2 nanotrap [2], the “precipitation … from E. coli lysate” value is “efficiently recognized”. Turning to “eGFP-PCNABC2T: BC2T genetically fused to the C-terminus of eGFP-PCNA”, in the test with BC2 nanotrap [1], the “precipitation by the BC2 nanotrap from HEK293T lysate” value is “efficiently precipitated”. Still for that read-out and setting: next, “eGFPBC2T: modified GFP comprising the BC2-tag on the C-terminus, expressed in HEK293T cells (eGFP-PDRKAAVSHWQQ; also: BC2 tag fused to the C-terminus of eGFP)”: “efficiently precipitated”; “mCherry-VIMBC2T: BC2T genetically fused to the C-terminus of mCherry-Vimentin”: “efficiently precipitated”.

Broadly, the Kd is the equilibrium constant for the complex coming apart. Low values mean higher affinity, high ones lower affinity.
